[5mC] = 5-methylcytosine; m = 2'-O-methyl; r = 2'-OH (RNA)
Test system: fluorescent peptide that mimics phenylalanine synthetase
Assay: Binding of yeast tRNAPhe ASL RNA oligomers to a phenylalanine synthetase peptide mimic
Conditions: compared with the native RNA oligomer or the unmodified RNA oligomer; FIG. 2
Experimental: A set of experiments was conducted to identify an RNA oligomer substrate to be used in an assay to identify substrates for use in identifying inhibitors of tRNA binding to a phenylalanine synthetase from yeast. A peptide was first identified for use as a phenylalanine synthetase mimic. The peptide was labeled with a fluorescent peptide for use in detection in binding assays.
A series of RNA oligomer substrates were also synthesized containing modified nucleotides (FIG. 2).
To determine binding affinity, an assay of ASL for yeast tRNA^phe was prepared varying only in the number of post-transcriptional nucleotide base modifications. This array was probed using a peptide from a phage display library that bound to an ASL containing 3 modifications. The affect of modification on the affinity of a peptide to an RNA substrate-sequence (Sequence A in FIG. 2: 5′-CCAGACUGAAGAUCUGG) (SEQ ID NO: 18) is the primary unmodified yeast ASL^Phe. Sequence B in FIG. 2 (5′-CCAGACmUGm AAGAUm^5CUGG) (SEQ ID NO: 19) is a template ASL sequence indicating the locations of the modified nucleotides for the various combinations of modified nucleotide bases in the mimics of the anticodon stem loop. Sequence C in FIG. 2 (5′-CCAGACmUGmAAm1GAΨm^5CUGG) (SEQ ID NO: 20) is the sequence of the native yeast tRNA^phe. […]

5′-CCAGACmUGm AAGAUm^5CUGG (CCAGACUGAAGAUCUGG; sugars from the 5' end r5 m1 r1 m1 r9, [5mC] at 14, backbone not given here; listed as Yersinia enterocolitica)
affinity for a fluorescent peptide that mimics phenylalanine synthetase: greater affinity
